Values quoted from earlier work, collected in patent publication US20080233201A1, “Method for Preparing Calibrated Biodegradable Microspheres” (priority 2004, published 2008).

Conditions: at 20° C.

solubility in water: 8.7 g/100 g of water
SMILES: CCOC(C)=O [Ethyl acetate]
